Data reported in patent publication US6410751B1, “Water soluble tri-substituted 1, 2-dioxetane compounds having increased storage stability, synthetic processes and intermediates” (Lumigen, Inc., priority 1995, dated 2002).
Read-outs that look alike come from different tables or passages of the source.

What was measured:
[1] = Enhancement of luminescent signal of a reagent based on dioxetane 1 by enhancers and fluorescers; conditions: for Factor of increase of luminescent signal: reagent based on dioxetane 1; for Enhancement Factor: 1 mg/mL Enhancer A
Text: As part of the optimization of a reagent based on dioxetane 1, a number of enhancer materials was examined. At pH 9.6, Enhancer A (1-trioctylphosphoniummethyl-4-tributylphosphoniummethylbenzene dichloride) increased the luminescent signal by a factor of 6.2, and Enhancer B (poly(vinylbenzyltributylphosphonium chloride)) increased the signal by a factor of 19.7. At pH 10.0, Enhancer A increased the signal by a factor of 4.8, and Enhancer B increased the signal by a factor of 18.9.
Tables 2 and 3 show the extent of enhancement by pyranine and fluorescein, respectively, in the presence of 1 mg/mL of Enhancer A.

[2] = Storage stability of dioxetane formulations measured by chemiluminescent enzyme assay; format: physicochemical; conditions: for % of Dioxetane Remaining: 0.5 mM dioxetane formulation pH 10, temperature not given (FIG. 5: 25° C.)
Text: Storage stability is related to the rate of decomposition of the dioxetane due to spontaneous reaction and is an intrinsic property. Decomposition of triggerable dioxetanes can also be induced by the presence of trace quantities of agents which catalyze the removal of a protecting group and thus initiate the decomposition. Storage stability of a dioxetane can be assessed by measuring the quantity of dioxetane present in a known sample at periodic intervals. The measurement can take any form known which measures a property relatable to the quantity of dioxetane. Techniques such as spectrophotometry, NMR spectrometry and the like are exemplary. A convenient means is to measure the amount of light produced by reacting a known quantity of dioxetane with a triggering agent under a standard set of conditions. A decrease in the amount or intensity of light emitted signals a loss of dioxetane compound.
A fluoro-substituted analog of dioxetane 1, identified as 3, a chloro-substituted analog 4 and a methyl-substituted analog 5 have been prepared and their storage stability evaluated over several weeks. Storage stability of a solution of 1 was measured for comparison. All solutions were prepared with the same composition, differing only in the identity of the dioxetane. Stability was evaluated by chemiluminescent enzyme assay with a fixed volume of test solution and fixed limiting amount of alkaline phosphatase and measuring the plateau light intensity at 25° C.
Formulations comprising 0.1 mg/mL Enhancer A, 0.88 mM Mg^+2 , 0.2 M 2-amino-2-methyl-1-propanol, pH 10, 0.1% Triton X-100 and 0.5 mM dioxetane 1, 3, 4 and 5, respectively, were prepared and stored in opaque polyethylene bottles at 4° C., 25° C. and 40° C. Twenty four 100 μL aliquots from each bottle were pipetted into the wells of a 96 well plate and the solutions incubated at 37° C. Into each well 10 μL solutions containing 8×10^−17 moles of AP were injected and light intensity integrated over five hours. Data are the average of all 24 wells. The experiment was repeated at the indicated time intervals for each dioxetane. The results in FIG. 5 show the comparative stability of the three formulations at 25° C.

alkaline phosphatase = experiment: Performance of detection reagent in assays for AP in the capsule chemistry test system; format: biochemical; conditions: fluorescein-labeled alkaline phosphatase conjugate captured onto magnetic particles
Protocol: (§1) The experiments described below were performed on a prototype capsule chemistry analysis system essentially as described by Kumar et al in U.S. Pat. No. 5,399,497, with the detection system configured to measure light emission (luminescence). The method and apparatus comprises feeding a stream of fluid segments through a Teflon tube, where the tube has an isolating layer of fluorocarbon oil on the inner surface. Sample and reagents are aspirated into this tube, and the resulting liquid segments are moved through the tube. Separation steps and washing steps which are required by heterogeneous immunoassay methods were facilitated by means of magnets, which transferred magnetic particles from one aqueous segment to another. The detection system was comprised of a photon counter and a fiber optic read head, in which the fibers were radially arranged around the Teflon tube to maximize the efficiency of light collection.
A detection reagent incorporating dioxetane 3 was evaluated in a test system as described in Example 7. The test material was a fluorescein-labeled alkaline phosphatase conjugate which was captured onto the magnetic particles.

[3] = Reagent carryover in capsule chemistry analysis system (TECHNICON IMMUNO 1 TSH method, luminescence detection); conditions: R3 reagent with 0.2 mM CSPD; 3 mM pyranine omitted from test N only
Protocol: as §1, with “Separation steps and washing steps which are required by heterogeneous immunoassay methods were facilitated by means of magnets, which transferred magnetic particles from one aqueous segment to another.” left out
The TECHNICON IMMUNO 1® TSH method (Bayer Corporation, Tarrytown, N.Y., USA) was used as a representative immunoassay method for the testing of luminogenic reagents. […] The particles were then exposed to the luminogenic reagent, which contained a substrate for ALP, and luminescence was measured.
R1 (10.4 μl of serum-based solution containing fluorescein-labeled antibody to TSH), R2 (10.4 μl of serum-based solution containing antibody to TSH conjugated with ALP) and S (7.2 μl of serum sample) were aspirated into the second segment. […] The fifth segment was R3, of the composition described above, with the key elements being the luminogenic substrate and the luminescence enhancer. […]

[4] = aqueous solutions, 25° C., four weeks

Molecule: CCCCCCCC[P+](CCCCCCCC)(CCCCCCCC)Cc1ccc(C[P+](CCCC)(CCCC)CCCC)cc1.[Cl-].[Cl-] [Enhancer A, 1-trioctylphosphoniummethyl-4-tributylphosphoniummethylbenzene dichloride]
- Factor of increase of luminescent signal ([1]; pH 9.6): 6.2
- Factor of increase of luminescent signal ([1]; pH 10.0): 4.8

Molecule: [4-(3,3-biscarboxy)-3-chloropropoxy)-4-(3-phosphoryloxyphenyl)]spiro[1,2-dioxetane-3,2′-tricyclo [3.3.1.1^3,7]decane], tetrasodium salt [Dioxetane 4]
- Storage stability compared with other dioxetanes (in words) [2]: worse than that of 1

Molecule: [4-(3,3-biscarboxy)-3-fluoropropoxy)-4-(3-phosphoryloxyphenyl)]spiro[1,2-dioxetane-3,2′-tricyclo [3.3.1.1^3,7]decane], tetrasodium salt [Dioxetane 3]
- Decomposition on storage (in words) [2, 4]: essentially no decomposition
- Assay performance (sensitivity, dynamic range, precision) in words (alkaline phosphatase): sensitivity, dynamic range and precision comparable to the results using dioxetane 1

Molecule: O=S(=O)([O-])c1cc(O)c2ccc3c(S(=O)(=O)[O-])cc(S(=O)(=O)[O-])c4ccc1c2c34.[Na+].[Na+].[Na+] [Pyranine]
- Factor by which signal in test N was lower when the fluorescent enhancer was omitted [3]: approximately 10
- Enhancement Factor ([1]; 0.01 mM fluorescer): 3.7
- Enhancement Factor ([1]; 0.02 mM fluorescer): 7.3
- Enhancement Factor ([1]; 0.03 mM fluorescer): 9.8
- Enhancement Factor ([1]; 0.04 mM fluorescer): 12.2
- Enhancement Factor ([1]; 0.05 mM fluorescer): 13.7
- Enhancement by fluorescer alone ([1]; fluorescer 3 mM, without Enhancer A): about ten-fold

Molecule: [4-(3,3-biscarboxybutoxy)-4-(3-phosphoryloxyphenyl)]spiro[1,2-dioxetane-3,2′-tricyclo[3.3.1.1^3,7]-decane], tetrasodium salt [Dioxetane 5]
- Decomposition on storage (in words) [2, 4]: essentially no decomposition

Molecule: O=C([O-])C(CCOC1(c2cccc(OP(=O)([O-])[O-])c2)OOC12C1CC3CC(C1)CC2C3)C(=O)[O-].[Na+].[Na+].[Na+].[Na+] (centres unmarked) [Dioxetane 1]
- % of Dioxetane Remaining ([2]; 0 wks): 100%
- % of Dioxetane Remaining ([2]; 1 wk): 94.8%
- % of Dioxetane Remaining ([2]; 2 wks): 91.1%
- % of Dioxetane Remaining ([2]; 3 wks): 87.5%
- % of Dioxetane Remaining ([2]; 4 wks): 84.1%
- % of Dioxetane Remaining ([2]; 5 wks): 81.8%
- % of Dioxetane Remaining ([2]; 6 wks): 80.7%
- % of Dioxetane Remaining ([2]; 9 wks): 76.5%
- Decomposition on storage (in words) ([2]; alkaline buffer, 25° C., two weeks): significant decomposition
- Storage stability compared with other dioxetanes (in words) ([2]; aqueous buffer solutions, 25° C.): significantly less stable than a related compound, Lumigen PPD
